Source: patent US20180311342A1, “IMMUNOSTIMULATING AGENT” (AJINOMOTO CO., INC., priority 2017, published 2018)
Counter-ions that a name gives are not always drawn.

Test system: anti-OVA-specific IgG1 and IgG2a subclass antibody production
Test: Evaluation test of adjuvant activity (overall conclusion from anti-OVA IgG1 and IgG2a production)
Type: in vivo, BALB/c mice
Conditions: compound 0.256 μmol in 5% αCD-added saline with OVA 5 μg, dorsal-subcutaneous
Protocol: 8-Week-old female BALB/c mice were divided into groups (N=6), and each group was primarily immunized by dorsal-subcutaneous administration of (1) ovalbumin (OVA) (5 μg) dissolved in saline as an antigen (OVA single administration group), (2) OVA 5 μg and Addavax™ (mixed with saline at 1:1) dissolved in saline (Addavax™ administration group) as positive control adjuvant, (3) OVA 5 μg and SZ137 0.256 μmol dissolved or dispersed in 5% α-cyclodextrin (hereinafter to be simply referred to as αCD)-added saline (SZ137 administration group), (4) OVA (5 μg) and SZ138 (0.256 μmol) dissolved or dispersed in 5% αCD-added saline (SZ138 administration group), (5) OVA (5 μg) and SZ142 (0.256 μmol) dissolved or dispersed in 5% αCD-added saline (SZ142 administration group), (6) OVA (5 μg) and SZ144 (0.256 μmol) dissolved or dispersed in 5% αCD-added saline (SZ144 administration group), (7) OVA (5 μg) and SZ145 (0.256 μmol) dissolved or dispersed in 5% αCD-added saline (SZ145 administration group), (8) OVA (5 μg) and SZ146 (0.256 μmol) dissolved or dispersed in 5% αCD-added saline (SZ146 administration group), (9) OVA (5 μg) and SZ147 (0.256 μmol) dissolved or dispersed in 5% αCD-added saline (SZ147 administration group), (10) OVA (5 μg) and SZ148 (0.256 μmol) dissolved or dispersed in 5% αCD-added saline (SZ148 administration group), each per mouse. Two week later, the secondary immunization was carried out by dorsal-subcutaneous administration of solutions or dispersions similar to those of the above-mentioned (1)-(10) again. […]
To a 96 well plate was added 5 μg/ml OVA at 100 µl/well, and the mixture was incubated at 4° C. overnight. After incubation, the mixture was washed three times with 200 μl of PBS-T (PBS (phosphate buffered saline)+0.05% (v/v) Tween 20) per well, and blocked with 100 μl of 5% FCS (fetal calf serum)/PBS solution per well at room temperature for 1-2 hr. Thereafter, the mixture was washed three times with PBS-T (200 μl/well), a diluted serum sample (100 l/well) or the same amount of 5% FCS/PBS solution as a control was added, and the mixture was incubated at 37° C. for 1 hr. To calculate concentration of the antibody, the standard of an anti-OVA-specific IgG1 subclass antibody diluted with 2% FCS/PBS solution was added at 100 ng/ml, 50 ng/ml, 25 ng/ml, 12.5 ng/ml, 6.25 ng/ml, 3.125 ng/ml, 1.56 ng/ml, 0.781 ng/ml, 0.391 ng/ml, 0.195 ng/ml, 0.098 ng/ml, 0 ng/ml, per 1 well. When an anti-OVA-specific IgG2a subclass antibody was measured, the standard of an anti-OVA-specific IgG2a subclass antibody was added at 50 ng/ml, 25 ng/ml, 12.5 ng/ml, 6.25 ng/ml, 3.125 ng/ml, 1.56 ng/ml, 0.781 ng/ml, 0.391 ng/ml, 0.195 ng/ml, 0.098 ng/ml, 0.049 ng/ml, 0 ng/ml, per 1 well. Thereafter, similar to the samples, the mixture was washed five times with PBS-T (200 μl/well), a diluted biotinylated anti-mouse IgG1 antibody and IgG2a antibody were added (100 μl/well), and the mixture was incubated at 37° C. for 45 min. Thereafter, the mixture was washed five times with PBS-T (200 μl/well), a diluted anti-biotin-HRP antibody was added (100 μl/well), and the mixture was incubated at 37° C. for another 30 min. Thereafter, the mixture was washed five times with PBS-T (200 μl/well), TMB substrate solution was added (100 μl/well), and the mixture was incubated at room temperature for 10-15 min. Thereafter, a reaction quenching liquid (2N sulfuric acid solution) was added (50 l/well) to discontinue a color developing reaction, and the absorbance (OD Value=450 nm) was measured by a microplate reader. A standard curve was drawn from the measured OD values, and the concentration was calculated. […]

[1] = conclusion from IgG1/IgG2a after secondary immunization
[2] = conclusion from IgG1/IgG2a after primary immunization

| SMILES | adjuvant activity [1] | adjuvant activity [2] |
| --- | --- | --- |
| CCCCCCCCCCCCCCCCCCCCCC(=O)N[C@@H](CCCCNC(=N)N)C(=O)NCCCCCCCCCCCC.Cl [SZ166, N-[(1S)-1-(dodecylcarbamoyl)-5-guanidino-pentyl]docosanamide hydrochloride] | have an adjuvant activity | – |
| CCCCCCCCCCCCCCCCCC(=O)N[C@@H](CCCNC(=N)N)C(=O)NCCCCCCCC.Cl [SZ182, N-[(1S)-4-guanidino-1-(octylcarbamoyl)butyl]octadecanamide hydrochloride] | have an adjuvant activity | have an adjuvant activity |
| CCCCCCCCCCCCCCCCCCCCCC(=O)N[C@@H](C)C(=O)NCCCCCCCCCCCC [SZ145, N-[(1S)-2-(dodecylamino)-1-methyl-2-oxo-ethyl]docosanamide] | have an adjuvant activity | – |
| CCCCCCCCCCCCCCCCCCCCCC(=O)N[C@@H](CCCCN)C(=O)NCCCCCCCCCCCC.Cl [SZ160, N-[(1S)-5-amino-1-(dodecylcarbamoyl)pentyl]docosanamide hydrochloride] | have an adjuvant activity | – |
| CCCCCCCCCCCCCCCCCCCCCC(=O)N1CCC(C(=O)NCCCCCCCCCCCC)CC1 [SZ156, 1-docosanoyl-N-dodecyl-piperidine-4-carboxamide] | have an adjuvant activity | – |
| CCCCCCCCCCCCCCCCOC(=O)N[C@@H](CCCNC(=N)N)C(=O)NCCCCCCCCCCCC.Cl [SZ150, Hexadecyl N-[(1S)-1-(dodecylcarbamoyl)-4-guanidino-butyl]carbamate hydrochloride] | have an adjuvant activity | – |
| CCCCCCCCCCCCCCCCCCCCCC(=O)N[C@@H](CCCNC(=N)N)C(=O)N(CCCCCCC)CCCCCCC.Cl [SZ159, N-[(1S)-1-(diheptylcarbamoyl)-4-guanidino-butyl]docosanamide hydrochloride] | have an adjuvant activity | – |
| CCCCCCCCCCCCCCCCOC(=O)N[C@@H](CCCNC(=N)N)C(=O)NCCCCCCCC.Cl [SZ215, hexadecyl N-[(1S)-4-guanidino-1-(octylcarbamoyl)butyl]carbamate hydrochloride] | have an adjuvant activity | have an adjuvant activity |
| CCCCCCCCCCCCCCCC(=O)N[C@@H](CC(C)C)C(=O)NCCCCCCCCCCCC [SZ144, N-[(1S)-1-(dodecylcarbamoyl)-3-methyl-butyl]hexadecanamide] | have an adjuvant activity | – |
| CCCCCCCCCCCCCCCCCCCCCC(=O)N[C@@H](CCCC)C(=O)NCCCCCCCCCCCC [SZ155, N-[(1S)-1-(dodecylcarbamoyl)pentyl]docosanamide] | have an adjuvant activity | – |
| CCCCCCCCCCCCCCCCCCCCCC(=O)N[C@@H](CCCNC(=N)N)C(=O)NCCCCCCCCCCCC.Cl [SZ138, N-[(1S)-1-(dodecylcarbamoyl)-4-guanidino-butyl]docosanamide hydrochloride] | have an adjuvant activity | – |
| CCCCCCCCCCCCCCCCCCCCCC(=O)N[C@@H](CCCNC(=N)N)C(=O)NCCCCCCC.Cl [SZ163, N-[(1S)-4-guanidino-1-(heptylcarbamoyl)butyl]docosanamide hydrochloride] | have an adjuvant activity | – |
| CCCCCCCCCCCCCCCCOC(=O)N[C@@H](CCCNC(=N)N)C(=O)NCCCCCC.Cl [SZ169, Hexadecyl N-[(1S)-4-guanidino-1-(hexylcarbamoyl)butyl]carbamate hydrochloride] | have an adjuvant activity | – |
| CCCCCCCCCCCCCCCCCC(=O)N[C@@H](CCCCNC(=N)N)C(=O)NCCCCCCCCCCCC.Cl [SZ205, N-[(1S)-1-(dodecylcarbamoyl)-5-guanidino-pentyl]octadecanamide hydrochloride] | have an adjuvant activity | have an adjuvant activity |
| CCCCCCCCCCCCCCCCOC(=O)N[C@@H](CCCCN)C(=O)NCCCCCCCCCCCC.Cl [SZ189, hexadecyl N-[(1S)-5-amino-1-(dodecylcarbamoyl)pentyl]carbamate hydrochloride] | have an adjuvant activity | have an adjuvant activity |
| CCCCCCCCCCCCCCCCNC(=O)N[C@@H](CC(C)C)C(=O)NCCCCCCCC [SZ201, (2S)-2-(hexadecylcarbamoylamino)-4-methyl-N-octyl-pentanamide] | have an adjuvant activity | have an adjuvant activity |
| CCCCCCCCCCCCCCCCNC(=O)NCCCCNC(=N)N.Cl [SZ190, 1-(4-guanidinobutyl)-3-hexadecyl-urea hydrochloride] | have an adjuvant activity | have an adjuvant activity |
| CCCCCCCCCCCCCCCC(=O)N[C@@H](CCCNC(=N)N)C(=O)NCCCCCCCC.Cl [SZ181, N-[(1S)-4-guanidino-1-(octylcarbamoyl)butyl]hexadecanamide hydrochloride] | have an adjuvant activity | have an adjuvant activity |
| CCCCCCCCCCCCNC(=O)[C@H](CCCNC(=N)N)N(CCCCCCC)CCCCCCC [SZ207, (2S)-2-(diheptylamino)-N-dodecyl-5-guanidino-pentanamide dihydrochloride] | have an adjuvant activity | have an adjuvant activity |
| CCCCCCCCCCCCCCCCCCCCCC(=O)NCCC(=O)NCCCCCCCCCCCC [SZ147, N-[3-(dodecylamino)-3-oxo-propyl]docosanamide] | have an adjuvant activity | – |
| CCCCCCCCCCCCCCCCCCCC(=O)N[C@@H](CCCNC(=N)N)C(=O)NCCCCCCCCCCCC.Cl [SZ180, N-[(1S)-1-(dodecylcarbamoyl)-4-guanidino-butyl]icosanamide hydrochloride] | have an adjuvant activity | have an adjuvant activity |
| CCCCCCCCCCCCCCCCCC(=O)N[C@H](CCCNC(=N)N)C(=O)NCCCCCCCCCCCC.Cl [SZ191, N-[(1R)-1-(dodecylcarbamoyl)-4-guanidino-butyl]octadecanamide hydrochloride] | have an adjuvant activity | have an adjuvant activity |
| CCCCCCCCCCCCCCCCNC(=O)N[C@@H](CCCCN)C(=O)NCCCCCCCCCCCC.Cl [SZ214, (2S)-6-amino-N-dodecyl-2-(hexadecylcarbamoylamino)hexanamide hydrochloride] | have an adjuvant activity | have an adjuvant activity |
| CCCCCCCCCCCCCCCCCCNC(=O)N[C@@H](CCCNC(=N)N)C(=O)NCCCCCCCCCCCC.Cl [SZ211, (2S)—N-dodecyl-5-guanidino-2-(octadecylcarbamoylamino)pentanamide hydrochloride] | have an adjuvant activity | have an adjuvant activity |
| CCCCCCCCCCCCCCCCCC(=O)N[C@@H](CC(C)C)C(=O)NCCCCCCCC [SZ196, N-[(1S)-3-methyl-1-(octylcarbamoyl)butyl]octadecanamide] | have an adjuvant activity | have an adjuvant activity |
